Assay results reported in ChEMBL document CHEMBL1139147, “Evaluation of fluorescently labeled xylopyranosides as probes for proteoglycan biosynthesis” (Bioorg Med Chem Lett, 2007).
Activity calls are given as the source filed them. No cut-off for these calls is given here.

Columns and labels:
[1] = Partition coefficient, log P assessed as retention time; assay type: physicochemical; settings: octanol/water
T-24 [2] = test: Suppression of proteoglycan production in T24 cells at 0.1 mM; assay type: functional, cell-based; settings: Homo sapiens
T-24 [3] = test: Suppression of glycosaminoglycan production in T24 cells at 0.1 mM; assay type: functional, cell-based; settings: Homo sapiens

For `CN(C)c1cccc2c(S(=O)(=O)Oc3ccc4cc(O[C@@H]5OC[C@@H](O)[C@H](O)[C@H]5O)ccc4c3)cccc12`, the Activity [1] was 38.48 min, the Activity (T-24 [2]) was “Active” and the Activity (T-24 [3]) was “Active”.
Molecule `Oc1cc2ccc(O[C@@H]3OC[C@@H](O)[C@H](O)[C@H]3O)cc2cc1COCc1c2ccccc2cc2ccccc12` has an Activity [1] of 43.4 min.
In the case of `Oc1ccc2cc(O[C@@H]3OC[C@@H](O)[C@H](O)[C@H]3O)ccc2c1`, the Activity [1] is reported as 17.73 min.
